Two molecules from paper PMC4802607, “Crystal structure and biochemical characterization of the recombinant ThBgl, a GH1 β-glucosidase overexpressed in Trichoderma harzianum under biomass degradation conditions” (Biotechnology for Biofuels, 2016) can be followed below.

For data set [1], the target named is T1, rThBgl (Trichoderma harzianum, UniProt A0A127SA86).
T1 construct: gene bgl; full-length GH1 beta-glucosidase, bgl gene 1398 bp, pET28a, E. coli Rosetta; N-terminal His6-tag cut with thrombin for assays
As to the kind of experiment: glucose tolerance of beta-glucosidase activity, […] glucose, triplicate. It is filed as biochemical. To be noted: read-out: % activity at 300 mM.

Substrate in data set [2]: O=[N+]([O-])c1ccc(O[C@@H]2O[C@H](CO)[C@@H](O)[C@H](O)[C@H]2O)cc1
As to the kind of experiment: purified protein. The following applies: 100 mM sodium phosphate pH 6.0, 40 °C, 0-10 mM substrate, 10 min.

As for `OC[C@H]1OC(O)[C@H](O)[C@@H](O)[C@@H]1O` (some centres unmarked) [glucose], the activity at 300000 µM in data set [1] was 50%.

B1: rThBgl (Trichoderma harzianum) (protein)
chain: MLPKDFQWGFATAAYQIEGAIDKDGRGPSIWDTFCAIPGKIADGTSGVTACDSYNRTAEDIALLKSLGAKSYRFSISWSRIIPKGGRDDPVNQLGIDHYAQFVDDLLEAGITPFITLFHWDLPEELHQRYGGLLNRTEFPLDFENYARVMFKALPKVRNWITFNEPLCSAIPGYGSGTFAPGRQSTTEPWIVGHNLLVAHGRAVKVYRDEFKDLNDGQIGIVLNGDFTYPWDSSDPLDREAAERRLEFFTAWYADPIYLGDYPASMRKQLGDRLPEFTPEEKAFVLGSNDFYGMNHYTSNYIRHRTSPATADDTVGNVDVLFYNKEGQCIGPETESSWLRPCPAGFRDFLVWISKRYNYPKIYVTENGTSLKGENDLPKEKILEDDFRVNYYNEYIRAMFTAATLDGVNVKGYFAWSLMDNFEWADGYVTRFGVTYVDYENGQQRFPKKSAKSLKPLFDELIAKE
Usually Km stands for the concentration of substrate that gives half-maximal velocity. Regarding B1, in data set [2], the Km was 970 µM.
